Assay results from patent publication US9090593B2, “Bicyclic compounds as Pim inhibitors” (AMGEN INC., priority 2010, dated 2015).
Structures can show the parent of a compound that is named as a salt.

Key:
[1] = molecular target: T1, full length recombinant Pim-2 protein (Homo sapiens, UniProt Q9P1W9); test: Pim-2 enzyme assay (HTRF, phosphorylation of biotinylated-BAD (S112) peptide); type: biochemical; settings: read-out: Pim2_IC50
T1 construct: by full length recombinant Pim-1, Pim-2, or Pim-3 protein; hexahistidine tag followed by a thrombin cleavage site (N); made in house; host or cells: Sf9 (baculovirus) or E. coli (pET28)
From the text: (§1) These cDNAs were used as templates in PCR reactions to produce full-length DNA clones of the PIMs. […] PCR products were digested with […] and EcoRI for Pim-1 and BamHI and EcoRI for Pim-2 and ligated into a modified baculovirus transfer vector (pFastBac1) cleaved with BamHI and EcoRI. For bacterial expression, the same cleaved PCR products encoding Pim-1 or Pim-2 were ligated into a modified E. coli expression vector pET28(a) cleaved with BamHI and EcoRI Amino-terminal hexahistidine tags followed by a thrombin cleavage site were previously added to the vectors using standard methods of molecular biology. Recombinant baculoviruses expressing Pim-1 or Pim-2 were made using standard methods (Fastbac manual, Invitrogen, Carlsbad, Calif.). Infection of Sf9 cells was done at an m.o.i. of greater than 5 for 24-48 h. Cells were harvested by centrifugation and frozen at −80 C. For E. coli expression, cells carrying pET28-His6-Th-Pim-1 or pET28-His6-Th-Pim-2 were picked from a single colony and grown o/n in LB media. The o/n culture was used to inoculate a 2 liter flask with 500 mL media. This was grown o/n and used to inoculate 15-20 liters of Terrific Broth in a New Brunswick Scientific fermentor. The E. coli were grown at 37° C. to and OD600>1.6. The temperature was dropped to 18° C. and o/n expression was induced with 0.5 mM IPTG. Cells were harvested by centrifugation and frozen at −80° C.
(§2) This step was repeated 3× and the resin was transferred to a 2.5 cm glass column. Ten column volumes of wash buffer (0.05 M HEPES, pH 8.0, 0.1 M NaCl, 0.01 M 2-mercaptoethanol, 10% (w/v) glycerol) were applied to the resin followed by 10 column volumes of elution buffer (0.05 M HEPES, pH 8.0, 0.25 M NaCl, 0.01 M 2-mercaptoethanol, 10% (w/v) glycerol, 0.1 M imidazole). Fractions were analyzed by SDS-PAGE and those containing the protein of interest were pooled and concentrated. The concentrated protein was applied to an Amersham Superdex 75 (XK 26/60) column equilibrated in 0.025 M Tris-HCl, pH 7.5, 0.1 M NaCl, 0.01 M 2-mercaptoethanol, 10% (w/v) glycerol. […] Fractions containing the monomeric protein of interest were pooled, concentrated to ˜2 mg/mL, and stored at −80° C.
(§3) The phosphorylation of biotinylated-BAD (S112) peptide by full length recombinant Pim-1, Pim-2, or Pim-3 protein was detected with streptavidin:Allophycocyanin (APC) conjugate and a europium (Eu) labeled antibody directed against phosphorylated-BAD (S112). […] The fluorescence is directly proportional to the amount of phosphorylated BAD peptide present in the reaction.
(§4) A reference compound was included on each assay plate in order to validate that plate; on one plate of every assay run, two additional reference compounds were included.
(§5) The final buffer conditions were as follows: 60 mM Hepes, pH 7.0, 0.05% BSA, 2 mM DTT. […] The reaction was stopped by the addition of 3 mM EDTA, and fluorescence was measured by an HTRF® Rubystar microplate reader. For each plate, percent of control (POC) values were calculated for each well. Values for the IC50 IP were estimated using a standard 4-parameter logistic model.

[2] = molecular target: T2, full length recombinant Pim-1 protein (Homo sapiens, UniProt P11309); test: Pim-1 enzyme assay (HTRF, phosphorylation of biotinylated-BAD (S112) peptide); type: biochemical; settings: read-out: Pim_1_IC50
T2 construct: by full length recombinant Pim-1, Pim-2, or Pim-3 protein; hexahistidine tag followed by a thrombin cleavage site (N); made in house; host or cells: Sf9 (baculovirus) or E. coli (pET28)
From the text: as §1, §2, §3, §4, §5

T2 sequence (P11309 whole entry): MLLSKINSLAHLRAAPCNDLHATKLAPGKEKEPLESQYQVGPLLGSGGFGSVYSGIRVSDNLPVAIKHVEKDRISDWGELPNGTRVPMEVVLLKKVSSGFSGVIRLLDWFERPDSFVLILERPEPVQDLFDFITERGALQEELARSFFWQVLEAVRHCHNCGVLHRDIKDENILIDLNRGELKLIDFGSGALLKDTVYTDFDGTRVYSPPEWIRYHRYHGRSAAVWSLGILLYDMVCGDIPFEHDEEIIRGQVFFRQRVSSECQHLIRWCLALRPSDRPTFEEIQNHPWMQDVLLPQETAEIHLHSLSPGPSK
T1 sequence (Q9P1W9 whole entry): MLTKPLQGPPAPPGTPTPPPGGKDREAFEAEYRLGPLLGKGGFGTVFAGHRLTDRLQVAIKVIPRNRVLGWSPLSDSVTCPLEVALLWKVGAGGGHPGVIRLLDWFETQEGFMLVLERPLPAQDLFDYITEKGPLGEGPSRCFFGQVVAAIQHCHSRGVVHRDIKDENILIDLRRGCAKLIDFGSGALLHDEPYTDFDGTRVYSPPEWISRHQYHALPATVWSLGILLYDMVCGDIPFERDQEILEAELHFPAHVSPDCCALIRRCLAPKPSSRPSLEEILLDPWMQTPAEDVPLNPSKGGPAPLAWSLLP

Structure (SMILES)	IC50 [1] [nM]	IC50 [2] [nM]
CN(C)c1nc(-c2n[nH]c3ccc(Nc4c(F)cccc4F)cc23)cc(=O)[nH]1 [Example 285, 6-(5-((2,6-difluorophenyl)amino)-1H-indazol-3-yl)-2-(dimethylamino) pyrimidin-4(3H)-one]	67	20
OCCc1ccc2[nH]nc(-c3cncc(O[C@H]4CNCCC45CC5)n3)c2c1 [Example 270, 2-(3-(6-((4R)-6-azaspiro[25]oct-4-yloxy)-2-pyrazinyl)-1H-indazol-5-yl)ethanol hydrochloride]	166	46
CC(C)Oc1cncc(-c2n[nH]c3ccc(-c4nccc(N5CCOC[C@@H]5C)n4)cc23)n1 [Example 380]	> 1000	67
CNC(=O)c1ccc2[nH]nc(-c3cncc(NC4CCNCC4)n3)c2c1 [Example 471]	329	171
c1cc2[nH]nc(-c3cncc(O[C@H]4CNCCC45CC5)n3)c2cc1-c1cncc(C2CC2)n1 [Example 275, 3-(6-((4R)-6-azaspiro[2.5]oct-4-yloxy)-2-pyrazinyl)-5-(6-cyclopropyl-2-pyrazinyl)-1H-indazole]	99	9
CC1CCCN(c2cnc(-c3ccc4[nH]cc(-c5cncc(O[C@@H]6CCCNC6)n5)c4c3)cn2)C1 (mixture of isomers) [Example 306]	93	23
COc1cc(-c2c[nH]c3ccc(-c4c(F)cccc4F)cc23)nc(N[C@@H]2CCCNC2)n1 [Example 278, (R)-4-(5-(2,6-difluorophenyl)-1H-indol-3-yl)-6-methoxy-N-(piperidin-3-yl)pyrimidin-2-amine]	700	565
OC1CN(c2cncc(-c3n[nH]c4ccc(-c5c(F)cccc5F)cc34)n2)CC1O (stereo not drawn) [Example 449]	639	159
CCCOc1c(OC)cc(C#N)cc1-c1ccc2[nH]cc(-c3cncc(O[C@@H]4CCCNC4)n3)c2c1 [Example 348]	> 1000	364
CC(C)Oc1cncc(-c2n[nH]c3ccc(-c4cnn(C(C)C)c4)cc23)n1 [Example 387]	230	93
CC(C)Oc1cncc(-c2ccc3[nH]cc(-c4nnc(N[C@H]5CCNC5)o4)c3c2)n1 [Example 511]	480	98
COc1ccc(Cl)cc1-c1ccc2[nH]cc(-c3cncc(O[C@@H]4CCCNC4)n3)c2c1 [Example 317]	297	53
CN(C)c1nc(-c2n[nH]c3ccc(-c4c(F)cccc4F)cc23)cc(=O)[nH]1 [Example 526]	91	34
O[C@@H]1CN(c2cncc(-c3n[nH]c4ccc(-c5c(F)cccc5F)cc34)n2)CC[C@@H]1O (single isomer, unassigned) [Example 249, cis-1-(6-(5-(2,6-difluorophenyl)-1H-indazol-3-yl)-2-pyrazinyl)-3,4-piperidinediol]	269	32
Cn1nccc1-c1ccc2[nH]nc(-c3cncc(O[C@@H]4CCCNC4)n3)c2c1 [Example 375]	243	75
COC(=O)c1ccc2[nH]cc(-c3nccc(N[C@@H]4CCCNC4)n3)c2c1 [Example 531]	182	20
CC1CNCC(Oc2cncc(-c3n[nH]c4ccc(-c5c(F)cccc5F)cc34)n2)C1 (single isomer, unassigned) [Example 468]	196	70
c1cc2[nH]cc(-c3cncc(O[C@@H]4CCCNC4)n3)c2cc1-c1csc(N2CCCC2)n1 [Example 553]	520	77
Fc1cccc(F)c1-c1ccc2[nH]nc(-c3cncc(CC4CCCNC4)n3)c2c1 (single isomer, unassigned) [Example 273, 5-(2,6-difluorophenyl)-3-(6-(3-piperidinylmethyl)-2-pyrazinyl)-1H-indazole]	287	70
CC(=O)c1ccc2[nH]nc(-c3cncc(O[C@H]4CNCCC45CC5)n3)c2c1 [Example 268, 1-(3-(6-((4R)-6-azaspiro[25]oct-4-yloxy)-2-pyrazinyl)-1H-indazol-5-yl)ethanone 2,2,2-trifluoroacetate]	146	105
N#Cc1ccc2[nH]cc(-c3cncc(N[C@@H]4CCCNC4)n3)c2c1 [Example 536]	208	30

Structure (SMILES)	IC50 [1] [nM]	IC50 [2] [nM]
C[C@H]1COCCN1c1ccc2[nH]nc(-c3cncc(O[C@H]4CNCCC45CC5)n3)c2c1 [Example 402]	39	30
COc1cc(-c2c[nH]c3ccc(-c4c(F)cccc4F)cc23)nc(N2CCC(N)CC2)n1 [Example 276, 1-(4-(5-(2,6-difluorophenyl)-1H-indol-3-yl)-6-methoxypyrimidin-2-yl)piperidin-4-amine]	929	344
CC(C)Nc1cc(=O)[nH]c(-c2c[nH]c3ccc(-c4c(F)cccc4F)cc23)n1 [Example 499]	> 1000	364
c1cc(C2CC2)nc(-c2c[nH]c3ccc(-c4cncc(C5CC5)n4)cc23)n1 [Example 371]	113	26
COC(=O)c1ccc2[nH]nc(-c3nccc(O[C@@H]4CCCNC4)n3)c2c1 [Example 498]	726	70
Oc1cncc(-c2n[nH]c3ccc(-c4ccccc4F)cc23)n1 [Example 435]	629	322
COC(=O)c1ccc2[nH]cc(-c3cncc(N[C@@H]4CCCNC4)n3)c2c1 [Example 532]	56	4
O=C1COCCN1c1ccc2[nH]nc(-c3cncc(O[C@H]4CNCCC45CC5)n3)c2c1 [Example 405]	447	159
CNC(=O)c1ccc2[nH]nc(-c3cncc(N4CCC(N)CC4)n3)c2c1 [Example 480]	203	106
Cc1cccc(-c2ccc3[nH]cc(-c4cncc(O[C@@H]5CCCNC5)n4)c3c2)c1C [Example 330]	268	54
COC(=O)c1ccc2[nH]nc(-c3nccc(NC4CCNCC4)n3)c2c1 [Example 485]	26	26
N#Cc1cc(-c2ccc3[nH]cc(-c4cncc(O[C@@H]5CCCNC5)n4)c3c2)ccc1F [Example 295]	75	34
Fc1cccc(F)c1-c1ccc2[nH]nc(-c3cncc(SC4CCCNC4)n3)c2c1 (single isomer, unassigned) [Example 415]	76	28
COc1cc(N[C@@H]2CCCNC2)nc(-c2c[nH]c3ccc(-c4c(F)cccc4F)cc23)n1 [Example 479]	77	112
CN(C)C(=O)c1ccc2[nH]nc(-c3ccnc(NC4CCNCC4)n3)c2c1 [Example 561]	> 1000	> 1000
C[C@@H]1COCCN1c1ccc2[nH]nc(-c3cncc(O[C@H]4CNCCC45CC5)n3)c2c1 [Example 403]	58	70
CNC(=O)c1ccc2[nH]nc(-c3cncc(N[C@@H]4CCCNC4)n3)c2c1 [Example 475]	192	30
Nc1ncc(-c2ccc3[nH]nc(-c4cncc(O[C@H]5CNCCC56CC6)n4)c3c2)cn1 [Example 464]	17	4
COc1cc(C#N)cc(-c2ccc3[nH]cc(-c4cncc(O[C@@H]5CCCNC5)n4)c3c2)c1OC [Example 346]	363	105
CN(C)C(=O)c1ccc2[nH]nc(-c3ccnc(O[C@@H]4CCCNC4)n3)c2c1 [Example 557]	> 1000	> 1000
Brc1ccc2[nH]nc(-c3cncc(O[C@H]4CNCCC45CC5)n3)c2c1 [Example 422]	82	22
